This note sets out measurements from EP0674651B1, “SUBSTITUTED 6-AZAANDROSTENONES” (priority 1992, dated 1994).

Each structure is given as a SMILES string. Bounds are passed on as bounds.

In assay [1] the target is T1, human type 1 5α-reductase (Homo sapiens, UniProt P18405).
T1 sequence (P18405 1-259): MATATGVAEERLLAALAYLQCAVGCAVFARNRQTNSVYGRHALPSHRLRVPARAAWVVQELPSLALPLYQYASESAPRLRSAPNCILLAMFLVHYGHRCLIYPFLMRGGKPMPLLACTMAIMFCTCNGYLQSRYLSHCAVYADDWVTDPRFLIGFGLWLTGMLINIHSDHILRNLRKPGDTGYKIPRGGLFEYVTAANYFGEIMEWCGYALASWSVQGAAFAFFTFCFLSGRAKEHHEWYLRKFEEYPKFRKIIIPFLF
Kind of assay: 5α-reductase in vitro inhibitory activity, human type 1.

Assay [2] concerns the target T2, human type 2 5α-reductase (Homo sapiens, UniProt P31213).
T2 sequence (P31213 1-254): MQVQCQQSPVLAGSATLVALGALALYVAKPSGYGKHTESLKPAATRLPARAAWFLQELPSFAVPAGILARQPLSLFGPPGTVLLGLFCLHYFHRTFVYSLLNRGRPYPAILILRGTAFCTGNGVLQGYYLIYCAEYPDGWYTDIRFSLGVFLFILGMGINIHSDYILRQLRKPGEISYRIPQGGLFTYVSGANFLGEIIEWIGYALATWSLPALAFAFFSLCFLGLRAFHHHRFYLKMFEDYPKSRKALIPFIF
The assay can be described thus: 5α-reductase in vitro inhibitory activity, human type 2.
Procedure: Microsomes were prepared by homogenization of the tissue or cells, followed by differential centrifugation of the homogenate. […] Corresponding incubations were carried out with no test compound as a control study.
The percentage of conversion of testosterone to DHT in the presence of test compounds compared to the corresponding conversion in the control study was estimated using high pressure liquid chromatography (HPLC) with radiochemical detection.

One may read the IC50 as the point on the concentration scale where inhibition reaches its midpoint. Low readings indicate greater potency in that assay, high ones weaker potency in that assay. As for `CC(C)(C)c1ccc(NC(=O)[C@H]2CC[C@H]3[C@@H]4CNC5=CC(=O)CC[C@]5(C)[C@H]4CC[C@]23C)cc1` [Compound 108, 17β-N-(4-t-Butyl)phenyl-carbamoyl-6-azaandrost-4-en-3-one], the IC50 in assay [1] was 10 to 100 nM; in assay [2], < 10 nM.

Consider `C[C@]12CC[C@H]3[C@@H](CNC4=CC(=O)CC[C@@]43C)[C@@H]1CC[C@@H]2C(=O)NC1(c2ccc(F)cc2)CCCCC1` [Compound 109, 17β-N-1-(4-Fluorophenyl)cyclohexyl-carbamoyl-6-azaandrost-4-en-3-one], for which the 50% inhibitory concentration (IC50) in assay [1] and in assay [2] was < 10 nM throughout.

Consider `CC1(C)Cc2ccccc2C1NC(=O)[C@H]1CC[C@H]2[C@@H]3CNC4=CC(=O)CC[C@]4(C)[C@H]3CC[C@]12C` (stereo partly drawn) [Compound 110, 17β-N-1-(2,2-Dimethyl)indanyl-carbamoyl-6-azaandrost-4-en-3-one], for which the results for the IC50 in assay [1] and in assay [2] were 10 to 100 nM and < 10 nM, respectively.

On to `COc1ccc(C2(NC(=O)[C@H]3CC[C@H]4[C@@H]5CNC6=CC(=O)CC[C@]6(C)[C@H]5CC[C@]34C)CCCCC2)cc1` [Compound 111, 17β-N-1-(4-Methoxyphenyl)cyclohexyl-carbamoyl-6-azaandrost-4-en-3-one], for which the IC50 in assay [1] and in assay [2] was < 10 nM throughout.

Turning to `C[C@]12CC[C@H]3[C@@H](CNC4=CC(=O)CC[C@@]43C)[C@@H]1CC[C@@H]2C(=O)Nc1cc(C(F)(F)F)ccc1-c1ccccc1` [Compound 112, 17β-N-(2-Phenyl-5-trifluoromethyl)phenyl-carbamoyl-6-azaandrost-4-en-3-one], the IC50 is 10 to 100 nM in assay [1] and < 10 nM in assay [2].

Consider `COc1cc(Cl)cc(NC(=O)[C@H]2CC[C@H]3[C@@H]4CNC5=CC(=O)CC[C@]5(C)[C@H]4CC[C@]23C)c1` [Compound 113, 17β-N-(3-Methoxy-5-chloro)phenyl-carbamoyl-6-azaandrost-4-en-3-one], for which the IC50 in assay [1] is 10 to 100 nM; in assay [2], < 10 nM.

As for `CCOC(=O)c1ccccc1NC(=O)[C@H]1CC[C@H]2[C@@H]3CNC4=CC(=O)CC[C@]4(C)[C@H]3CC[C@]12C` [Compound 114, 17β-N-(2-Carboethoxy)phenyl-carbamoyl-6-azaandrost-4-en-3-one], the values for the half-inhibitory concentration (IC50) in assay [1] and in assay [2] were 10 to 100 nM and < 10 nM, respectively.

For the compound `COc1ccc(C2(NC(=O)[C@H]3CC[C@H]4[C@@H]5CNC6=CC(=O)CC[C@]6(C)[C@H]5CC[C@]34C)CCCC2)cc1` [Compound 115, 17β-N-1-(4-Methoxyphenyl)cyclopentyl-carbamoyl-6-azaandrost-4-en-3-one], the IC50 in assay [1] and in assay [2] was < 10 nM each time.

For `CC1=C2NC[C@H]3[C@@H]4CC[C@H](C(=O)Nc5cc(C(F)(F)F)ccc5C(F)(F)F)[C@@]4(C)CC[C@@H]3[C@@]2(C)CCC1=O` [Compound 116, 17β-N-(2,5-bis(Trifluoromethyl))phenyl-carbamoyl-6-azaandrost-4-methyl-4-en-3-one], the 50% inhibitory concentration (IC50) in assay [1] and in assay [2] was < 10 nM each time.

On to `CC1=C2NC[C@H]3[C@@H]4CC[C@H](C(=O)Nc5cc(C(F)(F)F)ccc5C(C)(C)C)[C@@]4(C)CC[C@@H]3[C@@]2(C)CCC1=O` [Compound 117, 17β-N-(2-t-Butyl-5-trifluoromethyl)phenyl-carbamoyl-6-azaandrost-4-methyl-4-en-3-one], for which the IC50 in assay [1] and in assay [2] was < 10 nM in each case.

As to `CC1=C2NC[C@H]3[C@@H]4CC[C@H](C(=O)Nc5cc(C(C)(C)C)ccc5C(C)(C)C)[C@@]4(C)CC[C@@H]3[C@@]2(C)CCC1=O` [Compound 118, 17β-N-(2,5-Di-t-butyl)phenyl-carbamoyl-6-azaandrost-4-methyl-4-en-3-one], the IC50 in assay [1] and in assay [2] was < 10 nM in each case.

Take `CCOc1ccc(OCC)c(NC(=O)[C@H]2CC[C@H]3[C@@H]4CNC5=CC(=O)CC[C@]5(C)[C@H]4CC[C@]23C)c1` [Compound 119, 17β-N-(2,5-Diethoxy)phenyl-carbamoyl-6-azaandrost-4-en-3-one]: the IC50 in assay [1] is 10 to 100 nM; in assay [2], < 10 nM.

For `CC(C)(C)c1ccc(-c2ccc(Cl)cc2)cc1NC(=O)[C@H]1CC[C@H]2[C@@H]3CNC4=CC(=O)CC[C@]4(C)[C@H]3CC[C@]12C` [Compound 120, 17β-N-(2-t-Butyl-5-(4-chlorophenyl))phenyl-carbamoyl-6-azaandrost-4-en-3-one], the IC50 in assay [1] and in assay [2] was < 10 nM each time.

For the compound `CC(C)(C)c1ccc(C2(NC(=O)[C@H]3CC[C@H]4[C@@H]5CNC6=CC(=O)CC[C@]6(C)[C@H]5CC[C@]34C)CCCC2)cc1` [Compound 121, 17β-N-1-(4-t-Butylphenyl)cyclopentyl-carbamoyl-6-azaandrost-4-en-3-one], the IC50 in assay [1] and in assay [2] was < 10 nM each time.

Regarding `CC(C)(C)c1ccc(C2(NC(=O)[C@H]3CC[C@H]4[C@@H]5CNC6=CC(=O)CC[C@]6(C)[C@H]5CC[C@]34C)CCCCC2)cc1` [Compound 122, 17β-N-1-(4-t-Butylphenyl)cyclohexyl-carbamoyl-6-azaandrost-4-en-3-one], the IC50 in assay [1] and in assay [2] was < 10 nM in each case.

For `C[C@]12CC[C@H]3[C@@H](CNC4=CC(=O)CC[C@@]43C)[C@@H]1CC[C@@H]2C(=O)Nc1ccccc1C(=O)c1ccccc1` [Compound 123, 17β-N-(2-Benzoyl)phenyl-carbamoyl-6-azaandrost-4-en-3-one], the IC50 in assay [1] was 10 to 100 nM; in assay [2], < 10 nM.

For `C[C@]12CC[C@H]3[C@@H](CNC4=CC(=O)CC[C@@]43C)[C@@H]1CC[C@@H]2C(=O)NC1(c2ccc3c(c2)OCO3)CCCCC1` [Compound 124, 17β-N-1-(3,4-Methylenedioxyphenyl)cyclohexyl-carbamoyl-6-azaandrost-4-en-3-one], the IC50 in assay [1] was 10 to 100 nM; in assay [2], < 10 nM.

On to `CC1=C2NC[C@H]3[C@@H]4CC[C@H](C(=O)NC5(c6ccc(Cl)cc6)CCCC5)[C@@]4(C)CC[C@@H]3[C@@]2(C)CCC1=O` [Compound 125, 17β-N-1-(4-Chlorophenyl)cyclopentyl-carbamovl-6-azaandrost-4-methyl-4-en-3-one], for which the IC50 in assay [1] and in assay [2] was < 10 nM in each case.

Take `C[C@]12CC[C@H]3[C@@H](CNC4=C(Cl)C(=O)CC[C@@]43C)[C@@H]1CC[C@@H]2C(=O)Nc1cc(C(F)(F)F)ccc1C(F)(F)F` [Compound 126, 17β-N-(2,5-bis(Trifluoromethyl))phenyl-carbamoyl-6-azaandrost-4-chloro-4-en-3-one]: the IC50 in assay [1] and in assay [2] was < 10 nM in each case.

As to `CC(C)(C)c1ccc(C(F)(F)F)cc1NC(=O)[C@H]1CC[C@H]2[C@@H]3CNC4=C(Cl)C(=O)CC[C@]4(C)[C@H]3CC[C@]12C` [Compound 127, 17β-N-(2-t-Butyl-5-trifluoromethyl)phenyl-carbamoyl-6-azaandrost-4-chloro-4-en-3-one], the concentration for half-maximal inhibition (IC50) in assay [1] and in assay [2] was < 10 nM throughout.

Take `COc1ccc(C(C)(C)C)cc1NC(=O)[C@H]1CC[C@H]2[C@@H]3CNC4=CC(=O)CC[C@]4(C)[C@H]3CC[C@]12C` [Compound 128, 17β-N-(2-Methoxy-5-t-butyl)phenyl-carbamoyl-6-azaandrost-4-en-3-one]: the concentration for half-maximal inhibition (IC50) in assay [1] and in assay [2] was < 10 nM throughout.

`C[C@]12CC[C@H]3[C@@H](CNC4=CC(=O)CC[C@@]43C)[C@@H]1CC[C@@H]2C(=O)Nc1cc(C(F)(F)F)ccc1F` [Compound 129]: the IC50 in assay [1] is 10 to 100 nM; in assay [2] it was < 10 nM.

Take `CCC1(CC)CC1(NC(=O)[C@H]1CC[C@H]2[C@@H]3CNC4=CC(=O)CC[C@]4(C)[C@H]3CC[C@]12C)c1ccc(-c2ccccc2)cc1` (stereo partly drawn) [Compound 130, 17β-N-(1-(4-Biphenyl)-2,2-diethyl)cyclopropyl-carbamoyl-6-azaandrost-4-en-3-one]: the IC50 in assay [1] and in assay [2] was < 10 nM throughout.

For the compound `CCC1(CC)CC1(NC(=O)[C@H]1CC[C@H]2[C@@H]3CNC4=CC(=O)CC[C@]4(C)[C@H]3CC[C@]12C)c1ccc(C(F)(F)F)cc1` (stereo partly drawn) [Compound 131, 17β-N-(1-(4-Trifluoromethylphenyl)-2,2-diethyl)cyclopropyl-carbamoyl-6-azaandrost-4-en-3-one], the IC50 in assay [1] and in assay [2] was < 10 nM throughout.

On to `COC(=O)c1sc(C(C)(C)C)cc1NC(=O)[C@H]1CC[C@H]2[C@@H]3CNC4=CC(=O)CC[C@]4(C)[C@H]3CC[C@]12C` [Compound 132, 17β-N-3-(2-Carbomethoxy-5-t-butyl)thiophenyl-carbamoyl-6-azaandrost-4-en-3-one], for which the IC50 in assay [1] is 10 to 100 nM; in assay [2], < 10 nM.

With `C[C@]12CC[C@H]3[C@@H](CNC4=CC(=O)CC[C@@]43C)[C@@H]1CC[C@@H]2C(=O)Nc1ccccc1S(=O)(=O)c1ccccc1` [Compound 133, 17β-N-(2-Phenylsulfonyl)phenyl-carbamoyl-6-azaandrost-4-en-3-one], the IC50 is > 100 nM in assay [1] and < 10 nM in assay [2].

Consider `CCOC(=O)c1ccc(NC(=O)[C@H]2CC[C@H]3[C@@H]4CNC5=CC(=O)CC[C@]5(C)[C@H]4CC[C@]23C)cc1` [Compound 134, 17β-N-(4-Carboethoxy)phenyl-carbamoyl-6-azaandrost-4-en-3-one], for which the IC50 in assay [1] was 10 to 100 nM; in assay [2], < 10 nM.

Regarding `CC(C)(C)c1ccc(-c2ccc(C(F)(F)F)cc2NC(=O)[C@H]2CC[C@H]3[C@@H]4CNC5=CC(=O)CC[C@]5(C)[C@H]4CC[C@]23C)cc1` [Compound 135], the IC50 in assay [1] was > 100 nM; in assay [2], < 10 nM.
